This is an account of results in US12385066B2, “Retroviral transduction using poloxamers” (HELMHOLTZ ZENTRUM MUNCHEN—DEUTSCHES FORSCHU[…] GESUNDHEIT …, priority 2012, dated 2025).

In data set [1] the test system is HEK293T cells. As to the kind of experiment: Cell proliferation assay (WST-1), cellular toxicity of adjuvants. It is filed as cell-based, human. The protocol:
In 6-well plates, triplicates of 2×10^5 cells per well were seeded and treated with defined adjuvant concentrations ranging from 1 μg/ml to 1000 μg/ml. After 24 hours incubation (at 37° C. with 5% C02) the medium was exchanged with fresh medium and cells were incubated for additional 48 hours. Cell proliferation was determined with the WST-1 colorimetric cell proliferation assay (Roche), according to manufacturer's instructions. Shortly, cells were trypsinized following 100 μl cell incubation with 10 μl WST-1 substrate (at 37° C. with 5% C02) for 2 hours. The assay was performed in 96-well microtiter plates and absorbance was determined at 490 nm using a TECAN-Infinite microplate reader (TECAN).
From potential adjuvant substances for lentiviral gene delivery we selected five representatives from the class of polycation-like and seven from the class of poloxamer-like chemical substances (Tab. 1). HEK293T cells were co-incubated with defined substance concentration for 24 hours, than medium was changed and cells were incubated for additional 48 hours prior measurements of cell proliferation. To test specific HEK293T growth inhibition by different substances we measured incorporation of WST1 substrate and correlated to control cell population without any substance co-incubation (FIG. 1). […]
A general note: Tetrazolium assays rely on reduction of a dye to a coloured formazan, in cell work by metabolically active cells.

The test system of data set [2] is HEK293T cells. As to the kind of experiment: Adjuvant-assisted lentiviral (GFP) gene transfer into HEK293T cells, flow cytometry. The data set is classed as cell-based, human. A general note: A flow cytometer gives signals particle by particle.
Method: HEK293T cells (2×10^5 cells per well) were covered with 1 ml medium containing lentivirus (GP) with or without adjuvants. […] In given case, plates were centrifuged at 1,000 g for 60 min. After 24 hours incubation (at 37° C. with 5% CO2) the supernatant was exchanged with fresh medium and incubated for additional 48 hours. Combined microscopic analysis and documentation was done after 48 hours post infection (HBO 50/AC and AxioCam MRC, Carl Zeiss AG). […] Plates were centrifuged at 800 g for 90 min.
After lentiviral transduction, cells were washed in PBS and resuspended in PBS with 1 μg/mi propidium iodide (Invitrogen). After 10 min incubation on ice, 30,000 events were analyzed for forward/sideward scatter characteristics, green fluorescence light emission at 530 nm and red fluorescence light emission at 610 nm in FACSDiva (BD Biosciences).
HEK293T cells were covered (for 24 hours) with a mixture of LV with specified adjuvant in a maximum tolerable concentration (1000 μg/ml). LV carrying a CopGFP-coding transgene were applied in decreasing MOI from 2.5 to 0.0025. After medium change, cells were cultivated for another 48 hours and measured for green fluorescent light emission by flow cytometry.
HEK293T cells were covered (for 24 hours) with a mixture of LV as used in example 3 with specified adjuvant up to a maximum applied concentration of 5000 μg/ml Synperonic F108. […]

Consider `CCCCCCCC/C=C\CCCCCCCC(=O)OC[C@H](COP(=O)(O)OCCN)OC(=O)CCCCCCC/C=C\CCCCCCCC` [PEA, L-α-Phosphatidyl-ethanolamine-dioleoyl], for which the “cell proliferation / cellular viability” value in the data set on HEK293T cells [1] (1000 μg/ml, FIG. 1) is reported as “remained non-toxic”. Also, in the data set on HEK293T cells [2] (MOI 2.5, polybrene 10 μg/ml, others 1000 μg/ml, FIG. 2), the “transduction efficiency (in words)” value was “low transduction rates”. Further, in the data set on HEK293T cells [2] (polybrene 10 μg/ml, others 1000 μg/ml and above), the “transduction/infection compared with polybrene-assisted LV infection (in words)” value was “failed to further increase this transduction level”.
`CC(C)CCC[C@@H](C)[C@H]1CC[C@H]2[C@@H]3CC=C4C[C@@H](OC(=O)NCCN(C)C)CC[C@]4(C)[C@H]3CC[C@]12C.Cl` [Cholesterylcarbamate, Cholesteryl-3β-N-(dimethyl-amino-ethyl)-carbamate-hydrochloride]: the “cell proliferation / toxicity” value in the data set on HEK293T cells [1] (increasing concentrations above 10 μg/ml, FIG. 1a) is on record as “massive reduction in cell proliferation”.
